From patent publication US12594267B2, “Capsid inhibitors for the treatment of HIV” (Gilead Sciences, Inc., priority 2018, dated 2026) come the findings set out here.

Read-outs that look alike come from different tables or passages of the source.

Experiment [1] has as its system NRTI-resistant viruses. It is filed as cell-based, HIV-1. The note with it: Mutant/WT (LAI) EC50 ratio, MT-2 cells, mean ± s.d. of three experiments. The protocol:
The antiviral activity of the compound of Formula (a) was tested against a panel of known HIV-1 mutants resistant to HIV PIs (ATV and DRV), NRTIs (TFV and FTC), NNRTIs (RPV and EFV) or INSTIs (RAL, EVG and DTG) using a cytopathic antiviral assay in MT-2 cells.

The subject of experiment [2] is WT HXB2D. Briefly: Cytopathic antiviral assay in MT-2 cells, wild type HXB2D. It is filed as cell-based, HIV-1. The following applies: Human immunodeficiency virus 1, MT2, read-out: WT HXB2D EC50, MT-2 cells, mean ± s.d. of three experiments in triplicate. The protocol: (§1) The antiviral activity of the compound of Formula (a) was tested against a panel of known HIV-1 mutants resistant to HIV PIs (ATV and DRV), NRTIs (TFV and FTC), NNRTIs (RPV and EFV) or INSTIs (RAL, EVG and DTG) using a cytopathic antiviral assay in MT-2 cells. The compound of Formula (Ia) was fully active against all tested mutants resistant to PIs (Table 11), NRTIs (Table 12), NNRTIs (Table 13) or INSTIs (Table 14).
(Cytopathic effects are the visible damage that an infection or toxin causes in cultured cells.)

Experiment [3] concerns PI-resistant viruses. Briefly: Cytopathic antiviral assay in MT-2 cells, PI-resistant viruses. It is filed as cell-based, HIV-1. The note with it: Mutant/WT (HXB2D) EC50 ratio, mean ± s.d. of three experiments. The protocol:
as §1

Experiment [4] deals with INSTI-resistant viruses. Nature of the experiment: Cytopathic antiviral assay in MT-2 cells, INSTI-resistant viruses. It is filed as cell-based, HIV-1. The following applies: Mutant/WT (HXB2D) EC50 ratio, mean ± s.d. of three experiments. The protocol:
as §1

Experiment [5] relates to NNRTI-resistant viruses. Briefly: Cytopathic antiviral assay in MT-2 cells, NNRTI-resistant viruses. It is filed as cell-based, HIV-1. The note with it: Mutant/WT (HXB2D) EC50 ratio, mean ± s.d. of three experiments. The protocol:
as §1

The test system of experiment [6] is HIV-2 isolates. Briefly: Antiviral activity against HIV-2 isolates in PHA-stimulated human PBMCs. It is filed as cell-based. The following applies: Human immunodeficiency virus 2, PBMC, 168 h, 7-day infection, RT activity readout, mean of triplicate. The protocol: (§2) The antiretroviral activity of the compound of Formula (Ia) was tested against a panel of 22 HIV-1 clinical isolates of HIV-1 and two HIV-2 isolates in freshly isolated, PHA-stimulated human peripheral blood mononuclear cells (PBMCs). The HIV-1 isolates included representative strains from subtypes A, B, C, D, E, F, G, N, O, AE, and AG. Following a 7-day infection, virus production was determined by measuring reverse transcriptase activity in cell-free culture supernatants.

The test system of experiment [7] is HIV-1 clinical isolates. Briefly: Antiviral activity against HIV-1 clinical isolates in PHA-stimulated human PBMCs. It is filed as cell-based. The procedure:
as §2

The mark [8] stands for this setting: INSTI-resistance panel (Table 14).
Where [9] appears, read: NNRTI-resistance panel (Table 13).

As for `C[C@H](Cn1cnc2c(N)ncnc21)OCP(=O)(O)O` [TFV, tenofovir], the “EC50 Fold-Change” value in experiment [1] (6TAMs) was 3.0 ± 1.1; in experiment [1] (K65R) it was 2.4 ± 1.0; in experiment [1] (M184V), 0.9 ± 1.0.
With `CC(C)CN(C[C@@H](O)[C@H](Cc1ccccc1)NC(=O)O[C@H]1CO[C@H]2OCC[C@H]21)S(=O)(=O)c1ccc(N)cc1` [DRV, darunavir], the EC50 (usually the concentration giving half of the maximal effect) in experiment [2] (PI-resistance panel (Table 11)) stood at 2.82 ± 0.47 nM. The “EC50 Fold-Change” value in experiment [3] (G48V/V82A/L90M) worked out at 0.5 ± 0.2; in experiment [3] (G48V/V82S), 0.3 ± 0.1; in experiment [3] (I50V) it was 31.6 ± 22.8; in experiment [3] (I84V/L90M), 1.9 ± 0.9.
Consider `O=C1Nc2ccc(Cl)cc2[C@@](C#CC2CC2)(C(F)(F)F)O1` [EFV, efavirenz], for which the EC50 in experiment [2] (setting [8]) amounted to 1.37 ± 0.51 nM; in experiment [2] (setting [9]) it was 2.23 ± 0.18 nM; in experiment [2] (PI-resistance panel (Table 11)), 1.64 ± 0.55 nM. The “EC50 Fold-Change” value is listed as 1.2 ± 0.6 in experiment [4] (E92Q/N155H); 0.7 ± 0.3 in experiment [4] (E138K/Q148K); 1.0 ± 0.3 in experiment [4] (G140S/Q148R); 1.1 ± 0.5 in experiment [4] (N155H/Q148R); 1.3 ± 0.9 in experiment [4] (R263K/M50I); 0.9 ± 0.6 in experiment [4] (Y143R). Moreover, the “EC50 Fold-Change” value is reported as 0.9 ± 0.4 in experiment [3] (G48V/V82A/L90M); 0.7 ± 0.1 in experiment [3] (G48V/V82S); 3.0 ± 0.9 in experiment [3] (I50V); 0.4 ± 0.1 in experiment [3] (I84V/L90M); 14.2 ± 2.7 in experiment [5] (K103N); greater than 22.4 in experiment [5] (K103N/Y181C). Also, the entries for the “EC50 Fold-Change” value in experiment [5] (L100I/K103N), in experiment [5] (Y181C) and in experiment [5] (Y188L) were greater than 22.4, 3.3 ± 2.5 and greater than 22.4, respectively.
For `Cc1nnc(C(=O)NC(C)(C)c2nc(C(=O)NCc3ccc(F)cc3)c(O)c(=O)n2C)o1` [RAL, raltegravir], the EC50 in experiment [2] (setting [8]) is 6.41 ± 2.15 nM. The “EC50 Fold-Change” value in experiment [4] (E92Q/N155H) is greater than 15.6; in experiment [4] (E138K/Q148K) it was greater than 15.6; in experiment [4] (G140S/Q148R) it was greater than 15.6; in experiment [4] (N155H/Q148R), 13.9 ± 2.2; in experiment [4] (R263K/M50I) it was 1.6 ± 1.2; in experiment [4] (Y143R), 10.1 ± 1.2.
For the molecule `Cc1cc(/C=C/C#N)cc(C)c1Nc1ccnc(Nc2ccc(C#N)cc2)n1` [RPV, rilpivirine], in experiment [2] (setting [9]), the EC50 came out at 0.93 ± 0.23 nM. Besides, the “EC50 Fold-Change” value is on record as 0.7 ± 0.3 in experiment [5] (K103N); 3.2 ± 1.4 in experiment [5] (K103N/Y181C); 7.8 ± 2.6 in experiment [5] (L100I/K103N); 5.9 ± 4.3 in experiment [5] (Y181C); 6.9 ± 1.3 in experiment [5] (Y188L).
`Cc1cn([C@H]2C[C@H](N=[N+]=[N-])[C@@H](CO)O2)c(=O)[nH]c1=O` [AZT, zidovudine]: the EC50 in experiment [6] (HIV-2 isolate CBL-20) was determined as 14.3 nM; in experiment [6] (HIV-2 isolate CDC310319), 28.8 nM; in experiment [7] (Human immunodeficiency virus 1, BAL, PBMC, 168 h, read-out: EC50 in human PBMCs, HIV-1 subtype B isolate Ba-L, 7-day infection, RT activity readout, mean of triplicate) it was 43.2 nM; in experiment [7] (Human immunodeficiency virus 1, PBMC, 168 h, read-out: EC50 in human PBMCs, HIV-1 CRF01_AE isolate 90TH_CM235, 7-day infection, RT activity readout, mean of triplicate), 10.7 nM; in experiment [7] (Human immunodeficiency virus 1, PBMC, 168 h, read-out: EC50 in human PBMCs, HIV-1 CRF02_AG isolate 01CM0008BBY, 7-day infection, RT activity readout, mean of triplicate), 8.21 nM; in experiment [7] (Human immunodeficiency virus 1, PBMC, 168 h, read-out: EC50 in human PBMCs, HIV-1 CRF02_AG isolate 91DJ263, 7-day infection, RT activity readout, mean of triplicate), 34.9 nM. Also, the EC50 in experiment [7] (Human immunodeficiency virus 1, PBMC, 168 h, read-out: EC50 in human PBMCs, HIV-1 Group N isolate YBF30, 7-day infection, RT activity readout, mean of triplicate) was 8.96 nM; in experiment [7] (Human immunodeficiency virus 1, PBMC, 168 h, read-out: EC50 in human PBMCs, HIV-1 Group O isolate BCF01, 7-day infection, RT activity readout, mean of triplicate) it was 10.5 nM; in experiment [7] (Human immunodeficiency virus 1, PBMC, 168 h, read-out: EC50 in human PBMCs, HIV-1 subtype A isolate 92UG031, 7-day infection, RT activity readout, mean of triplicate) it was 51.6 nM; in experiment [7] (Human immunodeficiency virus 1, PBMC, 168 h, read-out: EC50 in human PBMCs, HIV-1 subtype A isolate 92UG037, 7-day infection, RT activity readout, mean of triplicate), 21.7 nM; in experiment [7] (Human immunodeficiency virus 1, PBMC, 168 h, read-out: EC50 in human PBMCs, HIV-1 subtype B isolate 89BZ_167, 7-day infection, RT activity readout, mean of triplicate), 10.1 nM; in experiment [7] (Human immunodeficiency virus 1, PBMC, 168 h, read-out: EC50 in human PBMCs, HIV-1 subtype B isolate 90US_873, 7-day infection, RT activity readout, mean of triplicate), 13.2 nM. Further, the EC50 in experiment [7] (Human immunodeficiency virus 1, PBMC, 168 h, read-out: EC50 in human PBMCs, HIV-1 subtype B isolate 91US001, 7-day infection, RT activity readout, mean of triplicate) turned out to be 20.3 nM; in experiment [7] (Human immunodeficiency virus 1, PBMC, 168 h, read-out: EC50 in human PBMCs, HIV-1 subtype B isolate 91US004, 7-day infection, RT activity readout, mean of triplicate), 19.7 nM; in experiment [7] (Human immunodeficiency virus 1, PBMC, 168 h, read-out: EC50 in human PBMCs, HIV-1 subtype B isolate 96TH_NP1538, 7-day infection, RT activity readout, mean of triplicate), 4.1 nM; in experiment [7] (Human immunodeficiency virus 1, PBMC, 168 h, read-out: EC50 in human PBMCs, HIV-1 subtype B isolate JR-CSF, 7-day infection, RT activity readout, mean of triplicate), 4.53 nM; in experiment [7] (Human immunodeficiency virus 1, PBMC, 168 h, read-out: EC50 in human PBMCs, HIV-1 subtype C isolate 92BR025, 7-day infection, RT activity readout, mean of triplicate), 16.9 nM; in experiment [7] (Human immunodeficiency virus 1, PBMC, 168 h, read-out: EC50 in human PBMCs, HIV-1 subtype C isolate 98US_MSC5016, 7-day infection, RT activity readout, mean of triplicate), 37.8 nM. Besides, the EC50 in experiment [7] (Human immunodeficiency virus 1, PBMC, 168 h, read-out: EC50 in human PBMCs, HIV-1 subtype D isolate 92UG001, 7-day infection, RT activity readout, mean of triplicate) turned out to be 7.29 nM; in experiment [7] (Human immunodeficiency virus 1, PBMC, 168 h, read-out: EC50 in human PBMCs, HIV-1 subtype D isolate 98UG_57128, 7-day infection, RT activity readout, mean of triplicate) it was 6.61 nM; in experiment [7] (Human immunodeficiency virus 1, PBMC, 168 h, read-out: EC50 in human PBMCs, HIV-1 subtype E isolate CMU02, 7-day infection, RT activity readout, mean of triplicate) it was 8.13 nM; in experiment [7] (Human immunodeficiency virus 1, PBMC, 168 h, read-out: EC50 in human PBMCs, HIV-1 subtype E isolate CMU08, 7-day infection, RT activity readout, mean of triplicate) it was 34.1 nM; in experiment [7] (Human immunodeficiency virus 1, PBMC, 168 h, read-out: EC50 in human PBMCs, HIV-1 subtype F isolate 93BR020, 7-day infection, RT activity readout, mean of triplicate) it was 25.1 nM; in experiment [7] (Human immunodeficiency virus 1, PBMC, 168 h, read-out: EC50 in human PBMCs, HIV-1 subtype G isolate JV1083, 7-day infection, RT activity readout, mean of triplicate) it was 20.5 nM. The EC50 in experiment [7] (Human immunodeficiency virus 1, PBMC, read-out: HIV-1 EC50 Mean ± s.d., mean over the 22 HIV-1 clinical isolates, human PBMCs) is 19 ± 13.5 nM; in experiment [7] (Human immunodeficiency virus 1, PBMC, read-out: HIV-1 EC50 Median, median over the 22 HIV-1 clinical isolates, human PBMCs) it was 15.1 nM; in experiment [7] (Human immunodeficiency virus 1, PBMC, read-out: HIV-1 EC50 Range, range over the 22 HIV-1 clinical isolates, human PBMCs) it was 4.1 to 51.6 nM.
